Assay results taken from patent publication US9255295B2, “Method for evaluating the sensitizing potential of a test compound” (IMMUNOSEARCH, priority 2010, dated 2016).
Where two headings read alike, the source gives them in different places.

Key:
[1] = test system: ARE gene family (AKR1B10, AKR1C1, AKR1C2, CYP1B1, FTH1P, FTL, G6PD, GCLM, NQO2, SLC7A11, TXNRD1, UGT1A1, UGT1A9, YWHAZ, CD36, CYP1A1, GCLC, HMOX1, NQO1, PSME2 …); settings: human
EPISKIN model = test: Sensitizing power: sensitizing potential retested at successive dilutions in the EPISKIN model

Oc1ccc(O)cc1 [Hydroquinone]
AHR expression compared to control ([1]; 15 min, 0.1 %): 0.8 | ARE >1.3 (NUMBER OF GENES) ([1]; 15 min, 0.1 %): 5 | GCLM expression compared to control ([1]; 15 min, 0.1 %): 0.7 | NQO2 expression compared to control ([1]; 15 min, 0.1 %): 0.9 | SLC7A11 expression compared to control ([1]; 15 min, 0.1 %): 1.3 | TOTAL ARE (NUMBER OF GENES) ([1]; 15 min, 0.1 %): 5 | UGT1A9 expression compared to control ([1]; 15 min, 0.1 %): 0.8 | AHR expression compared to control ([1]; 15 min, 1 %): 0.6 | ARE >1.3 (NUMBER OF GENES) ([1]; 15 min, 1 %): 9 | GCLM expression compared to control ([1]; 15 min, 1 %): 1.8 | NQO2 expression compared to control ([1]; 15 min, 1 %): 1.4 | SLC7A11 expression compared to control ([1]; 15 min, 1 %): 1.5 | TOTAL ARE (NUMBER OF GENES) ([1]; 15 min, 1 %): 9 | UGT1A9 expression compared to control ([1]; 15 min, 1 %): 1.5 | AHR expression compared to control ([1]; 15 min, 10 %): 0.6 | ARE >1.3 (NUMBER OF GENES) ([1]; 15 min, 10 %): 13 | GCLM expression compared to control ([1]; 15 min, 10 %): 2.0 | NQO2 expression compared to control ([1]; 15 min, 10 %): 1.5 | SLC7A11 expression compared to control ([1]; 15 min, 10 %): 1.6 | TOTAL ARE (NUMBER OF GENES) ([1]; 15 min, 10 %): 13 | UGT1A9 expression compared to control ([1]; 15 min, 10 %): 1.3 | ARE >1.3 (NUMBER OF GENES) ([1]; 15 min, 50 %): 15 | TOTAL ARE (NUMBER OF GENES) ([1]; 15 min, 50 %): 15 | AKR1B10 expression compared to control ([1]; 6 h, 0.1 %): 0.9 | AKR1C1 expression compared to control ([1]; 6 h, 0.1 %): 1.2 | AKR1C2 expression compared to control ([1]; 6 h, 0.1 %): 0.7 | CD36 expression compared to control ([1]; 6 h, 0.1 %): 0.7 | CYP1A1 expression compared to control ([1]; 6 h, 0.1 %): 8.0 | CYP1B1 expression compared to control ([1]; 6 h, 0.1 %): 1.8 | FTH1P expression compared to control ([1]; 6 h, 0.1 %): 1.2 | FTL expression compared to control ([1]; 6 h, 0.1 %): 1.5 | GCLC expression compared to control ([1]; 6 h, 0.1 %): 1.3 | HMOX1 expression compared to control ([1]; 6 h, 0.1 %): 1.1 | NQO1 expression compared to control ([1]; 6 h, 0.1 %): 1.2 | S100A8 expression compared to control ([1]; 6 h, 0.1 %): 1.1 | TXNRD1 expression compared to control ([1]; 6 h, 0.1 %): 2.3 | UGT1A1 expression compared to control ([1]; 6 h, 0.1 %): 1.7 | AKR1B10 expression compared to control ([1]; 6 h, 1 %): 1.0 | AKR1C1 expression compared to control ([1]; 6 h, 1 %): 2.0 | AKR1C2 expression compared to control ([1]; 6 h, 1 %): 1.3 | CD36 expression compared to control ([1]; 6 h, 1 %): 0.7 | CYP1A1 expression compared to control ([1]; 6 h, 1 %): 15.4 | CYP1B1 expression compared to control ([1]; 6 h, 1 %): 7.1 | FTH1P expression compared to control ([1]; 6 h, 1 %): 1.3 | FTL expression compared to control ([1]; 6 h, 1 %): 1.5 | GCLC expression compared to control ([1]; 6 h, 1 %): 1.3 | HMOX1 expression compared to control ([1]; 6 h, 1 %): 1.0 | NQO1 expression compared to control ([1]; 6 h, 1 %): 1.3 | S100A8 expression compared to control ([1]; 6 h, 1 %): 1.4 | TXNRD1 expression compared to control ([1]; 6 h, 1 %): 2.1 | UGT1A1 expression compared to control ([1]; 6 h, 1 %): 1.4 | AKR1B10 expression compared to control ([1]; 6 h, 10 %): 1.0 | AKR1C1 expression compared to control ([1]; 6 h, 10 %): 2.6 | AKR1C2 expression compared to control ([1]; 6 h, 10 %): 1.8 | CD36 expression compared to control ([1]; 6 h, 10 %): 0.7 | CYP1A1 expression compared to control ([1]; 6 h, 10 %): 33.2 | CYP1B1 expression compared to control ([1]; 6 h, 10 %): 17.1 | FTH1P expression compared to control ([1]; 6 h, 10 %): 1.4 | FTL expression compared to control ([1]; 6 h, 10 %): 1.9 | GCLC expression compared to control ([1]; 6 h, 10 %): 1.5 | HMOX1 expression compared to control ([1]; 6 h, 10 %): 1.2 | NQO1 expression compared to control ([1]; 6 h, 10 %): 1.5 | S100A8 expression compared to control ([1]; 6 h, 10 %): 1.4 | TXNRD1 expression compared to control ([1]; 6 h, 10 %): 2.6 | UGT1A1 expression compared to control ([1]; 6 h, 10 %): 1.5 | AHR expression compared to control ([1]; 6 h, 50 %): 0.9 | AKR1B10 expression compared to control ([1]; 6 h, 50 %): 1.1 | AKR1C1 expression compared to control ([1]; 6 h, 50 %): 3.5 | AKR1C2 expression compared to control ([1]; 6 h, 50 %): 3.7 | CD36 expression compared to control ([1]; 6 h, 50 %): 0.8 | CYP1A1 expression compared to control ([1]; 6 h, 50 %): 57.8 | CYP1B1 expression compared to control ([1]; 6 h, 50 %): 49.5 | FTH1P expression compared to control ([1]; 6 h, 50 %): 2.1 | FTL expression compared to control ([1]; 6 h, 50 %): 3.5 | GCLC expression compared to control ([1]; 6 h, 50 %): 2.4 | GCLM expression compared to control ([1]; 6 h, 50 %): 3.8 | HMOX1 expression compared to control ([1]; 6 h, 50 %): 3.5 | NQO1 expression compared to control ([1]; 6 h, 50 %): 2.8 | NQO2 expression compared to control ([1]; 6 h, 50 %): 2.0 | S100A8 expression compared to control ([1]; 6 h, 50 %): 1.4 | SLC7A11 expression compared to control ([1]; 6 h, 50 %): 5.4 | TXNRD1 expression compared to control ([1]; 6 h, 50 %): 7.9 | UGT1A1 expression compared to control ([1]; 6 h, 50 %): 1.9 | UGT1A9 expression compared to control ([1]; 6 h, 50 %): 1.7 | sensitizing potential (Sensitizing / Non-sensitizing) (EPISKIN model; 1%): Sensitizing | sensitizing potential (Sensitizing / Non-sensitizing) (EPISKIN model; 10%): Sensitizing | sensitizing potential (Sensitizing / Non-sensitizing) (EPISKIN model; 50%): Sensitizing | sensitizing power (class) (EPISKIN model; from successive dilutions 50%, 10%, 1%, 0.1%): STRONG
